Laboratory results reported in US6825350B2, “Sulfonamide and sulfamide substituted imidazoquinolines and methods for the treatment of periodontal disease using these and other immune response modifiers” (3M Innovative Properties Company, priority 1999, dated 2004).
Read-outs that look alike come from different tables or passages of the source.

How the values were obtained:
[1] = test system: tumor necrosis factor (α); test: Cytokine induction in human cells: tumor necrosis factor (α) by ELISA; type: cell-based; conditions: human PBMCs, 18 to 24 hours incubation, ELISA of culture supernatant, read-out: Lowest Effective Concentration (μM) Tumor Necrosis Factor
interferon (α) = test: Cytokine induction in human cells: interferon (α) by ELISA; type: cell-based; conditions: human PBMCs, 18 to 24 hours incubation, ELISA of culture supernatant, read-out: Lowest Effective Concentration (μM) Interferon

Compound | minimal effective concentration ([1]; Homo sapiens, PBMC) | minimal effective concentration (interferon (α); Homo sapiens, PBMC) | minimal effective concentration [1] | minimal effective concentration (interferon (α))
CCCCc1nc2c(N)nc3ccccc3c2n1CCNS(=O)(=O)c1cccs1 [Example 19] | 3.33 µM | 0.12 µM | – | –
COCCc1nc2c(N)nc3ccccc3c2n1CCCCNS(=O)(=O)Cc1ccccc1 [Example 113] | > 10 µM | 0.0001 µM | – | –
CCCCc1nc2c(N)nc3ccccc3c2n1CCNS(=O)(=O)/C=C/c1ccccc1 [Example 29] | 10 µM | 0.37 µM | – | –
COCCc1nc2c(N)nc3ccccc3c2n1CCCCNS(=O)(=O)c1ccc(Cl)cc1 [Example 128] | 1 µM | 0.0001 µM | – | –
CCCCCCCCS(=O)(=O)NCCCCn1cnc2c(N)nc3c(c21)CCCC3 [Example 56] | > 30 µM | > 30 µM | – | –
CCCCc1nc2c(N)nc3ccccc3c2n1CCCCNS(=O)(=O)c1ccccc1OC(F)(F)F [Example 91] | 1 µM | 0.01 µM | – | –
CCCCc1nc2c(N)nc3ccccc3c2n1CCCCNS(=O)(=O)c1ccc2c(c1)CN(C(=O)C(F)(F)F)CC2 [Example 102] | 10 µM | 0.001 µM | – | –
COCCc1nc2c(N)nc3ccccc3c2n1CCCCNS(=O)(=O)c1cccc(Br)c1 [Example 184] | 1 µM | 0.0001 µM | – | –
COCCc1nc2c(N)nc3ccccc3c2n1CCCCNS(=O)(=O)N[C@H](C)c1ccccc1 [Example 226] | 0.1 µM | 0.0001 µM | – | –
CCCCc1nc2c(N)nc3ccccc3c2n1CCNS(=O)(=O)Cc1ccccc1 [Example 28] | 30 µM | 1.11 µM | – | –
CCCCc1nc2c(N)nc3ccccc3c2n1CCCCNS(=O)(=O)c1cccc(C(F)(F)F)c1 [Example 80] | 10 µM | 1 µM | – | –
CCCCc1nc2c(N)nc3ccccc3c2n1CCCCNS(=O)(=O)c1ccc2ccccc2c1 [Example 42] | > 30 µM | 0.01 µM | – | –
COCCc1nc2c(N)nc3ccccc3c2n1CCCCNS(=O)(=O)c1cccs1 [Example 112] | > 10 µM | 0.0001 µM | – | –
CCCCc1nc2c(N)nc3ccccc3c2n1CCCCNS(=O)(=O)c1cccc2cccnc12 [Example 43] | > 30 µM | 0.04 µM | – | –
COCCc1nc2c(N)nc3ccccc3c2n1CCCCNS(=O)(=O)NCc1ccccc1 [Example 231] | 1 µM | 0.0001 µM | – | –
CCCCc1nc2c(N)nc3ccccc3c2n1CCCCNS(C)(=O)=O [Example 6, N^1-[4-(4-Amino-2-butyl-1H-imidazo[4,5-c]quinolin-1-yl)butyl]methanesulfonamide] | – | – | 1.11 µM | 0.00017 µM
CCCCc1nc2c(N)nc3ccccc3c2n1CCCCNS(=O)(=O)c1c(C)c(C)c(C)c(C)c1C [Example 107] | > 10 µM | 1 µM | – | –
CCCCc1nc2c(N)nc3ccccc3c2n1CCCCNS(=O)(=O)c1cccc([N+](=O)[O-])c1 [Example 83] | 1 µM | 0.001 µM | – | –
COCCc1nc2c(N)nc3ccccc3c2n1CCCCNS(=O)(=O)C[C@]12CCC(CC1=O)C2(C)C [Example 148] | 1 µM | 0.0001 µM | – | –

Compound | minimal effective concentration ([1]; Homo sapiens, PBMC) | minimal effective concentration (interferon (α); Homo sapiens, PBMC) | minimal effective concentration [1] | minimal effective concentration (interferon (α))
CCCCc1nc2c(N)nc3ccccc3c2n1CCCCNS(=O)(=O)/C=C/c1ccccc1 [Example 50] | > 30 µM | 0.12 µM | – | –
CCCCc1nc2c(N)nc3ccccc3c2n1CCCCNS(=O)(=O)CCCC [Example 74] | 0.01 µM | 0.001 µM | – | –
CCCCc1nc2c(N)nc3ccccc3c2n1CCCCNS(=O)(=O)c1ccc(C)cc1 [Example 40] | 3.33 µM | 0.0015 µM | – | –
COCCc1nc2c(N)nc3ccccc3c2n1CCCCNS(=O)(=O)NC(C)(C)C [Example 230] | 1 µM | 0.0001 µM | – | –
CCCCc1nc2c(N)nc3ccccc3c2n1CCCCNS(=O)(=O)C(C)C [Example 38] | 0.37 µM | 0.0015 µM | – | –
COCCc1nc2c(N)nc3ccccc3c2n1CCCCNS(=O)(=O)c1ccc(OC(F)(F)F)cc1 [Example 154] | 10 µM | 0.001 µM | – | –
CCCCc1nc2c(N)nc3ccccc3c2n1CCCCNS(=O)(=O)c1ccccc1C(F)(F)F [Example 103] | 10 µM | 0.1 µM | – | –
CCCCc1nc2c(N)nc3ccccc3c2n1CCCCNS(=O)(=O)c1ccc(OC)c(OC)c1 [Example 81] | 1 µM | 0.001 µM | – | –
CCCCc1nc2c(N)nc3ccccc3c2n1CCCCNS(=O)(=O)c1ccc(-c2ccccc2)cc1 [Example 96] | > 10 µM | 1 µM | – | –
CCCCc1nc2c(N)nc3ccccc3c2n1CCCCNS(=O)(=O)c1c(F)cccc1F [Example 93] | 0.1 µM | 0.001 µM | – | –
CCCCc1nc2c(N)nc3ccccc3c2n1CCCCNS(=O)(=O)c1cc(Br)ccc1OC [Example 52] | 10 µM | – | – | 0.12 µM
CCCCc1nc2c(N)nc3ccccc3c2n1CCCCNS(C)(=O)=O [Example 36] | – | – | 3.33 µM | 0.0015 µM
CCOC(=O)C1CCN(S(=O)(=O)NCCCCn2c(CCOC)nc3c(N)nc4ccccc4c32)CC1 [Example 227] | > 10 µM | 0.001 µM | – | –
CCCCc1nc2c(N)nc3c(c2n1CCCCNS(=O)(=O)c1cccc2c(N(C)C)cccc12)CCCC3 [Example 206] | > 10 µM | 1 µM | – | –
CCCCc1nc2c(N)nc3ccccc3c2n1CCCCNS(=O)(=O)c1ccc(C(F)(F)F)cc1[N+](=O)[O-] [Example 79] | 1 µM | 0.01 µM | – | –
COCCc1nc2c(N)nc3ccccc3c2n1CCCCNS(=O)(=O)N(C)C [Example 218] | 1 µM | 0.0001 µM | – | –
COCCc1nc2c(N)nc3c(c2n1CCCCNS(=O)(=O)c1ccccc1)CCCC3 [Example 210] | 1 µM | 0.0001 µM | – | –
CCCCc1nc2c(N)nc3ccccc3c2n1CCNS(=O)(=O)c1cc(Br)ccc1OC [Example 24] | 30 µM | 0.12 µM | – | –
Nc1nc2c(c3c1ncn3CCCCNS(=O)(=O)c1cccs1)CCCC2 [Example 57] | > 30 µM | 3.33 µM | – | –

Compound | minimal effective concentration ([1]; Homo sapiens, PBMC) | minimal effective concentration (interferon (α); Homo sapiens, PBMC) | minimal effective concentration [1] | minimal effective concentration (interferon (α))
COCCc1nc2c(N)nc3ccccc3c2n1CCCCNS(=O)(=O)c1ccccc1Cl [Example 127] | 10 µM | 0.0001 µM | – | –
CC(C)S(=O)(=O)NCCCCn1cnc2c(N)nc3c(c21)CCCC3 [Example 55] | > 30 µM | 3.33 µM | – | –
CCCCS(=O)(=O)NCCCCn1c(CCOC)nc2c(N)nc3c(c21)CCCC3 [Example 209] | 0.1 µM | 0.0001 µM | – | –
Nc1nc2c(c3c1ncn3CCCCNS(=O)(=O)c1ccc(Cl)cc1)CCCC2 [Example 59] | > 30 µM | 3.33 µM | – | –
Nc1nc2c(c3c1ncn3CCCCNS(=O)(=O)c1ccc(Cl)c(Cl)c1)CCCC2 [Example 60] | > 30 µM | > 30 µM | – | –
CCCCc1nc2c(N)nc3ccccc3c2n1CCCCNS(=O)(=O)c1ccc(Br)s1 [Example 99] | 10 µM | 0.1 µM | – | –
CCCCc1nc2c(N)nc3ccccc3c2n1CCCCNS(=O)(=O)c1ccc(C(=O)O)cc1 [Example 84] | 10 µM | 1 µM | – | –
CCCCc1nc2c(N)nc3ccccc3c2n1CCCCNS(=O)(=O)c1cc(Cl)ccc1OC [Example 100] | 10 µM | 0.01 µM | – | –
Nc1nc2c(c3c1ncn3CCCCNS(=O)(=O)c1ccccc1)CCCC2 [Example 58] | > 30 µM | 3.33 µM | – | –
COc1ccc(S(=O)(=O)NCCCCn2cnc3c(N)nc4c(c32)CCCC4)cc1 [Example 65] | > 30 µM | 3.33 µM | – | –
COCCc1nc2c(N)nc3ccccc3c2n1CCCCNS(=O)(=O)c1ccc(Br)cc1 [Example 152] | 10 µM | 0.0001 µM | – | –
CCCCc1nc2c(N)nc3ccccc3c2n1CCNS(=O)(=O)c1ccc(OC)cc1 [Example 27] | 30 µM | 1.11 µM | – | –
CCCCc1nc2c(N)nc3ccccc3c2n1CCNS(=O)(=O)c1cccc2c(N(C)C)cccc12 [Example 33] | 10 µM | 1.11 µM | – | –
COCCc1nc2c(N)nc3c(c2n1CCCCNS(=O)(=O)c1cccc2c(N(C)C)cccc12)CCCC3 [Example 213] | 1 µM | 0.0001 µM | – | –
CCCCc1nc2c(N)nc3ccccc3c2n1CCCCNS(=O)(=O)c1ccc(I)cc1 [Example 46] | > 30 µM | 0.37 µM | – | –
COc1ccc(Br)cc1S(=O)(=O)NCCCCn1cnc2c(N)nc3c(c21)CCCC3 [Example 66] | 30 µM | > 30 µM | – | –
Cc1cc(C)c(S(=O)(=O)NCCCCn2cnc3c(N)nc4c(c32)CCCC4)c(C)c1 [Example 63] | > 30 µM | > 30 µM | – | –
COCCc1nc2c(N)nc3ccccc3c2n1CCCCNS(=O)(=O)c1ccc(C#N)cc1 [Example 160] | 1 µM | 0.001 µM | – | –
